# Laboratory results reported in patent US20220340875A1, “METHODS OF CULTURING AND/OR EXPANDING STEM CELLS AND/OR LINEAGE COMMITTED PROGENITOR CELLS USING AMIDO COMPOUNDS” (IDEAYA BIOSCIENCES, INC., priority 2018, published 2022).
# Biological target: T1, hAhR (Homo sapiens, UniProt P35869)
# T1 construct: Stably integrated DRE-luciferase cell lines were generated by transducing the both cell lines with Cignal XRE luciferase reporter (Qiagen) lentiviral particles; endogenous in cells
# T1 sequence (P35869 11-848): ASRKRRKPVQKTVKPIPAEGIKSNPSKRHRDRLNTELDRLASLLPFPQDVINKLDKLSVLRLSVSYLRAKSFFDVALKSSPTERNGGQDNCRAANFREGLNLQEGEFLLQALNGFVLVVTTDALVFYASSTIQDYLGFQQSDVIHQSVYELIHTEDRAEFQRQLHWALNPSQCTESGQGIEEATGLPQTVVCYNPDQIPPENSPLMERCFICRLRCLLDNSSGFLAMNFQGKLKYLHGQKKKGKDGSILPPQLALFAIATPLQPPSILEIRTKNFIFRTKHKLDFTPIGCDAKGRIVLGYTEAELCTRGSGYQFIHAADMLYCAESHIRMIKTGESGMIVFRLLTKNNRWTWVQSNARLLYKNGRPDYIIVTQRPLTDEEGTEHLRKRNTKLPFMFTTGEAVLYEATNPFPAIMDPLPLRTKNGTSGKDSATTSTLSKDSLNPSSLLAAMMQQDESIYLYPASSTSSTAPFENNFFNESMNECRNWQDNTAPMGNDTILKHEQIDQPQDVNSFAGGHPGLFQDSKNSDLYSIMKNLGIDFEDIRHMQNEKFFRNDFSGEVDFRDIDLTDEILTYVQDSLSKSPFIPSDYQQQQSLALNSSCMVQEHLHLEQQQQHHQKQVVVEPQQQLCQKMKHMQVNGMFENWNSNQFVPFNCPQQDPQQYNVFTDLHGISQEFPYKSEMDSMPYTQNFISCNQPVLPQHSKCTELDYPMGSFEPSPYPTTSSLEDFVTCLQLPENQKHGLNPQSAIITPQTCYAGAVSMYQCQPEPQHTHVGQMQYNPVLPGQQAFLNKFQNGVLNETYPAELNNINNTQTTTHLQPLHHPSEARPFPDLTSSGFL
# Test: AhR DRE-luciferase reporter transcriptional assay, antagonist mode (TCDD-induced)
# Format: cell-based
# Conditions: HEPG2 DRE-Luc cells, 3 nM TCDD, 24 hour incubation, relative IC50
# Experimental: HEPG2 and HEPA1C1C7 cells were maintained in MEM and αMEM without nucleosides supplemented with 10% heat inactivated FBS respectively. Stably integrated DRE-luciferase cell lines were generated by transducing the both cell lines with Cignal XRE luciferase reporter (Qiagen) lentiviral particles according to the manufacturer protocol. For both cell lines stably integrated reporter cell lines were selected for the presence of 2 µg/mL puromycin. Following selection of stably integrated cell line pools, clonal cell lines were isolated by limiting dilution in 96-well plates. Transcriptional assays were performed by seeding 100 μL of cells at a density of 250,000 or 100,000 cells/mL, for HEPG2 and HEPA1C1C7 DRE-Luc cells respectively, into 96-well cell culture plates in OptiMEM supplemented with 0.5% heat inactivated FBS and allowed to attach overnight. For modulator assays, the compounds were added in a semi-log dose response using a D300e Digital Dispenser (Tecan) followed normalization with vehicle (DMSO). Immediately following compound addition 10 μL of 2,3,7,8-Tetrachlorodibenzo-p-dioxin (TCDD) was added to the cells to a final concentration of 3 nM or 0.3 nM for the HEPG2 and HEPA1C1C7 DRE-Luc cells respectively. Following 24 hour incubation the medium was removed and the cells were lysed in 25 μL of Reporter Lysis Buffer (Promega). Firefly luciferase activity was measured immediately following the addition of 50 μL Luciferase Assay Reagent (Promega). The percent maximal activity for each point was determined using the following equasion: (RLUsample-RLUvehicle−TCDD)/(RLUvehicle+TCDD RLUvehicle−TCDD)*100. The relative IC50, defined as the compound concentration required to reduce the TCDD induced response between the top and bottom plateau of each individual dose response curve by half, for each compound was determined using Prism 7 (GraphPad Software).
row,IC50 [nM],SMILES
1,< 200,"Cc1cc(-c2ccc3nc(C(F)(F)F)ccc3n2)ccc1N(C)C(=O)c1ccnn1CCO [Example 210, 1-(2-hydroxyethyl)-N-methyl-N-(2-methyl-4-(6-(trifluoromethyl)-1,5-naphthyridin-2-yl)phenyl)-1H-pyrazole-5-carboxamide]"
2,1000 to 10000,"Cn1nccc1C(=O)Nc1ccc(-c2ncc3cc(C(F)(F)F)ccc3n2)cc1 [Example 220, 1-methyl-N-(4-(6-(trifluoromethyl)quinazolin-2-yl)phenyl)-1H-pyrazole-5-carboxamide]"
3,< 200,"Cc1cc(-c2ccc3cc(C(F)(F)F)cc(C)c3n2)ccc1N(C)C(=O)c1ccnn1CCO [Example 201, 1-(2-hydroxyethyl)-N-methyl-N-(2-methyl-4-(8-methyl-6-(trifluoromethyl)-quinolin-2-yl)phenyl)-1H-pyrazole-5-carboxamide]"
4,< 200,"Cc1cc(-c2ncc3nc(C(F)(F)F)cc(C)c3n2)ccc1N(C)C(=O)c1ccnn1CCO [Example 173, 1-(2-hydroxyethyl)-N-methyl-N-(2-methyl-4-(8-methyl-6-(trifluoromethyl)-pyrido[3,2-d]pyrimidin-2-yl)phenyl)-1H-pyrazole-5-carboxamide]"
5,< 200,"Cc1c(-c2ncc3nc(C(F)(F)F)cc(C)c3n2)ccc(N(C)C(=O)c2ccnn2C)c1F [Example 177, N-(2-fluoro-3-methyl-4-(8-methyl-6-(trifluoromethyl)pyrido[3,2-d]pyrimidin-2-yl)phenyl)-N,1-dimethyl-1H-pyrazole-5-carboxamide]"
6,< 200,"Cc1cc(-c2ncc3nc(C(F)(F)F)cc(C)c3n2)ccc1N(C)C(=O)c1ccnn1CCN1CCCC1 [Example 182, N-methyl-N-(2-methyl-4-(8-methyl-6-(trifluoromethyl)pyrido[3,2-d]pyrimidin-2-yl)phenyl)-1-(2-(pyrrolidin-1-yl)ethyl)-1H-pyrazole-5-carboxamide]"
7,1000 to 10000,"Cc1cc(-c2ncc3nc(C(F)(F)F)ccc3n2)c(C)cc1NC(=O)c1ccnn1C [Example 189, N-(2,5-dimethyl-4-(6-(trifluoromethyl)pyrido[3,2-d]pyrimidin-2-yl)phenyl)-1-methyl-1H-pyrazole-5-carboxamide]"
8,< 200,"Cc1cc(-c2ncc3cc(C(F)(F)F)ccc3n2)ccc1N(C)C(=O)c1c(C)cnn1C [Example 217, N,1,4-trimethyl-N-(2-methyl-4-(6-(trifluoromethyl)quinazolin-2-yl)phenyl)-1H-pyrazole-5-carboxamide]"
9,< 200,"Cc1cc(N(C)C(=O)c2ccnn2C)ccc1-c1ncc2nc(C(F)(F)F)ccc2n1 [Example 187, N,1-dimethyl-N-(3-methyl-4-(6-(trifluoromethyl)pyrido[3,2-d]pyrimidin-2-yl)phenyl)-1H-pyrazole-5-carboxamide]"
10,< 200,"Cc1c(NC(=O)c2ccnn2C)ccc(-c2ncc3nc(C(F)(F)F)cc(C)c3n2)c1F [Example 174, N-(3-fluoro-2-methyl-4-(8-methyl-6-(trifluoromethyl)pyrido[3,2-d]pyrimidin-2-yl)phenyl)-1-methyl-1H-pyrazole-5-carboxamide]"
11,< 200,"Cc1cc(C(F)(F)F)nc2cnc(-c3ccc(NC(=O)N4CCOCC4)c(F)c3)nc12 [Example 185, N-(2-fluoro-4-(8-methyl-6-(trifluoromethyl)pyrido[3,2-d]pyrimidin-2-yl)-phenyl)morpholine-4-carboxamide]"

# The next lines start with the compound.
row,SMILES,IC50 [nM]
1,"Cc1cc(-c2ccc3cc(OC(F)(F)F)ccc3n2)ccc1N(C)C(=O)c1ccnn1C [Example 010, N,1-dimethyl-N-(2-methyl-4-(6-(trifluoromethoxy)quinolin-2-yl)phenyl)-1H-pyrazole-5-carboxamide]",200 to 500
2,"Cc1cc(-c2ncc3cc(C(F)(F)F)ccc3n2)ccc1N(C)C(=O)c1ccnn1CCN1CCOCC1 [Example 157, N-methyl-N-(2-methyl-4-(6-(trifluoromethyl)quinazolin-2-yl)phenyl)-1-(2-morpholinoethyl)-1H-pyrazole-5-carboxamide]",< 200
3,"Cc1cc(-c2nc(N)c3nc(C(F)(F)F)cc(C)c3n2)ccc1N(C)C(=O)c1ccnn1C [Example 154, N-(4-(4-amino-8-methyl-6-(trifluoromethyl)pyrido[3,2-d]pyrimidin-2-yl)-2-methylphenyl)-N,1-dimethyl-1H-pyrazole-5-carboxamide]",< 200
4,"Cc1cc(-c2ccc3cc(F)ccc3n2)ccc1NC(=O)c1ccnnc1 [Example 029, N-(4-(6-fluoroquinolin-2-yl)-2-methylphenyl)pyridazine-4-carboxamide]",1000 to 10000
5,"Cc1cc(-c2ncc3nc(C(F)(F)F)cc(C)c3n2)ccc1N(C)C(=O)c1ccnn1CC(N)=O [Example 171, 1-(2-amino-2-oxoethyl)-N-methyl-N-(2-methyl-4-(8-methyl-6-(trifluoromethyl)pyrido[3,2-d]pyrimidin-2-yl)phenyl)-1H-pyrazole-5-carboxamide]",200 to 500
6,"Cc1cc(NC(=O)c2ccnn2C)cnc1-c1ccc2cc(F)ccc2n1 [Example 046, N-(6-(6-fluoroquinolin-2-yl)-5-methylpyridin-3-yl)-1-methyl-1H-pyrazole-5-carboxamide]",500 to 1000
7,"CNC(=O)N(C)c1ccc(-c2ncc3cc(C(F)(F)F)ccc3n2)cc1C [Example 127, 1,3-dimethyl-1-(2-methyl-4-(6-(trifluoromethyl)quinazolin-2-yl)phenyl)urea]",< 200
8,"COc1cc(C(=O)Nc2ccc(-c3ncc4cc(C(F)(F)F)ccc4n3)cc2C)ccn1 [Example 142, 2-methoxy-N-(2-methyl-4-(6-(trifluoromethyl)quinazolin-2-yl)phenyl)isonicotinamide]",< 200
9,"Cc1cc(-c2nc(N)c3nc(C(F)(F)F)cc(C)c3n2)ccc1NC(=O)c1ccnn1C [Example 153, N-(4-(4-amino-8-methyl-6-(trifluoromethyl)pyrido[3,2-d]pyrimidin-2-yl)-2-methylphenyl)-1-methyl-1H-pyrazole-5-carboxamide]",< 200
10,"Cc1cc(-c2ccc3cnccc3c2)ccc1NC(=O)c1ccnn1C [Example 021, N-(4-(Isoquinolin-6-yl)-2-methylphenyl)-1-methyl-1H-pyrazole-5-carboxamide]",500 to 1000
11,"Cc1cc(-c2ncc3cc(C(F)(F)F)ccc3n2)ccc1N(C)C(=O)c1ccnn1CC(N)=O [Example 156, 1-(2-amino-2-oxoethyl)-N-methyl-N-(2-methyl-4-(6-(trifluoromethyl)quinazolin-2-yl)phenyl)-1H-pyrazole-5-carboxamide]",< 200
12,"Cc1cc(-c2ccc3c(ccn3CC(F)(F)F)n2)ccc1NC(=O)c1ccnn1C [Example 084, 1-methyl-N-(2-methyl-4-(1-(2,2,2-trifluoroethyl)-1H-pyrrolo[3,2-b]pyridin-5-yl)phenyl)-1H-pyrazole-5-carboxamide]",1000 to 10000
13,"Cc1cc(-c2ccc3cc(F)ccc3n2)ccc1NC(=O)C1CCOCC1 [Example 025, N-(4-(6-fluoroquinolin-2-yl)-2-methylphenyl)tetrahydro-2H-pyran-4-carboxamide]",1000 to 10000
14,"Cc1cc(C(=O)Nc2ccc(-c3ncc4nc(C(F)(F)F)cc(C)c4n3)cc2C)ccn1 [Example 149, 2-methyl-N-(2-methyl-4-(8-methyl-6-(trifluoromethyl)pyrido[3,2-d]pyrimidin-2-yl)phenyl)isonicotinamide]",< 200
15,"Cc1cc(-c2nc3ccc(F)cc3s2)ccc1NC(=O)c1ccnn1C [Example 098, N-(4-(6-fluorobenzo[d]thiazol-2-yl)-2-methylphenyl)-1-methyl-1H-pyrazole-5-carboxamide]",1000 to 10000
